{"source": "patent EP4722231A1", "about": "“BIOSYNTHESIS METHOD FOR BROAD-SPECTRUM ANTIVIRAL POLYPEPTIDE” (Shanxi Jinbo Bio-Pharmaceutical Co., Ltd., priority 2023, dated 2025)", "key": {"BA.2.86 pseudovirus": {"test_system": "BA.2.86 pseudovirus", "conditions": "read-out: Inhibitory activity, IC50 (nM) BA.2.86, Caco2 target cells"}, "BA.2 pseudovirus": {"test_system": "BA.2 pseudovirus", "conditions": "read-out: Inhibitory activity, IC50 (nM) BA.2, Caco2 target cells"}, "BA.2.75 pseudovirus": {"test_system": "BA.2.75 pseudovirus", "conditions": "read-out: Inhibitory activity, IC50 (nM) BA.2.75, Caco2 target cells"}, "XBB.1.5 pseudovirus": {"test_system": "XBB.1.5 pseudovirus", "conditions": "read-out: Inhibitory activity, IC50 (nM) XBB.1.5, Caco2 target cells"}, "EG.5 pseudovirus": {"test_system": "EG.5 pseudovirus", "conditions": "read-out: Inhibitory activity, IC50 (nM) EG.5, Caco2 target cells"}}, "data": [{"molecule": "CC[C@H](C)[C@H](NC(=O)[C@H](C)NC(=O)[C@H](CCC(=O)O)NC(=O)[C@H](CCC(=O)O)NC(=O)[C@H](CC(C)C)NC(=O)[C@H](CCCCN)NC(=O)[C@H](CCCCN)NC(=O)[C@H](CCSC)NC(=O)[C@H](CCC(=O)O)NC(=O)[C@H](Cc1ccc(O)cc1)NC(=O)[C@H](CCC(=O)O)NC(=O)[C@H](CC(C)C)NC(=O)[C@H](CC(=O)O)NC(=O)[C@H](CC(C)C)NC(=O)[C@H](Cc1ccccc1)NC(=O)[C@@H](NC(=O)[C@@H](NC(=O)[C@H](CC(N)=O)NC(=O)[C@@H](NC(=O)[C@H](CCC(N)=O)NC(=O)[C@H](CC(=O)O)NC(=O)[C@H](CC(C)C)NC(=O)[C@H](CO)NC(C)=O)[C@@H](C)CC)C(C)C)[C@@H](C)O)C(=O)N[C@@H](CCCCN)C(=O)N[C@@H](CCCCN)C(=O)N[C@@H](CC(C)C)C(=O)N[C@@H](CCC(=O)O)C(=O)N[C@@H](CCC(=O)O)C(=O)N[C@@H](CO)C(=O)N[C@@H](Cc1ccc(O)cc1)C(=O)N[C@H](C(=O)N[C@@H](CC(=O)O)C(=O)N[C@@H](CC(C)C)C(=O)N[C@@H](CCCCN)C(=O)N[C@@H](CCC(=O)O)C(=O)N[C@@H](CC(C)C)C(N)=O)[C@@H](C)CC", "note": "[EK1]", "values": [{"measurement": "IC50", "setting": "BA.2.86 pseudovirus", "value": 392, "unit": "nM"}, {"measurement": "IC50", "setting": "BA.2 pseudovirus", "value": 228, "unit": "nM"}, {"measurement": "IC50", "setting": "BA.2.75 pseudovirus", "value": 438, "unit": "nM"}, {"measurement": "IC50", "setting": "XBB.1.5 pseudovirus", "value": 291, "unit": "nM"}, {"measurement": "IC50", "setting": "EG.5 pseudovirus", "value": 401, "unit": "nM"}]}]}
